According to ChEMBL document CHEMBL3992552, “Mechanisms of action and structure-activity relationships of cytotoxic flavokawain derivatives” (Bioorg Med Chem, 2017):
Calls of active or inactive are those of the source. The rule behind the calls is not given here.

Experiments:
Huh-7 [1] = experiment: Cytotoxicity against human HuH7 cells assessed as cell survival at 50 uM after 48 hrs by Hoechst 33342 staining based assay relative to control; format: functional; details: Huh-7, 48 h, read-out: Survival
Caco-2 [2] = experiment: Cytotoxicity against human Caco2 cells assessed as cell survival at 50 uM after 48 hrs by Hoechst 33342 staining based assay relative to control; format: functional; details: Caco-2, 48 h, read-out: Survival
MDA-MB-231 [3] = experiment: Cytotoxicity against human MDA-MB-231 cells assessed as cell survival at 50 uM after 48 hrs by Hoechst 33342 staining based assay relative to control; format: functional; details: MDA-MB-231, 48 h, read-out: Survival
HCT-116 [4] = experiment: Cytotoxicity against human HCT116 cells assessed as cell survival at 50 uM after 48 hrs by Hoechst 33342 staining based assay relative to control; format: functional; details: HCT-116, 48 h, read-out: Survival
PC-3 [5] = experiment: Cytotoxicity against human PC3 cells assessed as cell survival at 50 uM after 48 hrs by Hoechst 33342 staining based assay relative to control; format: functional; details: PC-3, 48 h, read-out: Survival
Huh-7 [6] = experiment: Cytotoxicity against human HuH7 cells assessed as cell viability after 48 hrs by Hoechst 33342 staining based assay; format: functional; details: Huh-7, 48 h
Caco-2 [7] = experiment: Cytotoxicity against human Caco2 cells assessed as cell viability after 48 hrs by Hoechst 33342 staining based assay; format: functional; details: Caco-2, 48 h
HCT-116 [8] = experiment: Cytotoxicity against human HCT116 cells assessed as cell viability after 48 hrs by Hoechst 33342 staining based assay; format: functional; details: HCT-116, 48 h
PC-3 [9] = experiment: Cytotoxicity against human PC3 cells assessed as cell viability after 48 hrs by Hoechst 33342 staining based assay; format: functional; details: PC-3, 48 h
NCI-H727 [10] = experiment: Cytotoxicity against human NCI-H727 cells assessed as cell viability after 48 hrs by Hoechst 33342 staining based assay; format: functional; details: NCI-H727, 48 h
HaCaT [11] = experiment: Cytotoxicity against human HaCaT cells assessed as cell viability after 48 hrs by Hoechst 33342 staining based assay; format: functional
Fibroblast = experiment: Cytotoxicity against human fibroblasts assessed as cell viability after 48 hrs by Hoechst 33342 staining based assay
[12] = Selectivity index, ratio of IC50 for human fibroblasts to IC50 for human HuH7 cells
[13] = Selectivity index, ratio of IC50 for human fibroblasts to IC50 for human Caco2 cells
[14] = Selectivity index, ratio of IC50 for human fibroblasts to IC50 for human MDA-MB-231 cells
[15] = Selectivity index, ratio of IC50 for human fibroblasts to IC50 for human PC3 cells
[16] = Selectivity index, ratio of IC50 for human fibroblasts to IC50 for human NCI-H727 cells
[17] = Selectivity index, ratio of IC50 for human fibroblasts to IC50 for human HaCaT cells
[18] = Selectivity index, ratio of IC50 for human fibroblasts to IC50 for human RL cells
MDA-MB-231 [19] = experiment: Induction of apoptosis in human MDA-MB-231 cells harboring p53 mutant assessed as increase in late apoptosis at 2 times IC50 after 24 hrs by YoPro/propidium iodide/Hoechst staining based assay; format: functional, cell-based
MCF7 = experiment: Induction of apoptosis in human MCF7 cells harboring wild-type p53 assessed as increase in late apoptosis at 2 times IC50 after 24 hrs by YoPro/propidium iodide/Hoechst staining based assay; format: functional, cell-based
PC-3 [20] = experiment: Induction of apoptosis in human PC3 cells harboring p53 mutant assessed as increase in cleaved caspase3 at 2 times IC50 after 48 hrs by Hoechst staining based assay; format: functional, cell-based
MDA-MB-231 [21] = experiment: Induction of apoptosis in human MDA-MB-231 cells harboring p53 mutant assessed as increase in cleaved caspase3 at 2 times IC50 after 24 hrs by Hoechst staining based assay; format: functional, cell-based
Huh-7 [22] = experiment: Cell cycle arrest in human HuH7 cells assessed as mitotic index at 10 uM measured after 48 hrs by Hoechst staining based fluorescence assay (reference value: 2.2); format: functional
Huh-7 [23] = experiment: Cell cycle arrest in human HuH7 cells assessed as accumulation at S phase at 10 uM measured after 48 hrs by Hoechst/BrdU staining based fluorescence assay (reference value: 44%); format: functional
Caco-2 [24] = experiment: Cell cycle arrest in human Caco2 cells assessed as mitotic index at 10 uM measured after 48 hrs by Hoechst staining based fluorescence assay (reference value: 3.6); format: functional
MDA-MB-231 [25] = experiment: Cell cycle arrest in human MDA-MB-231 cells harboring p53 mutant assessed as mitotic index at 10 uM measured after 48 hrs by Hoechst staining based fluorescence assay (reference value: 2.1); format: functional
PC-3 [26] = experiment: Cell cycle arrest in human PC3 cells harboring p53 mutant assessed as mitotic index at 10 uM measured after 48 hrs by Hoechst staining based fluorescence assay (reference value: 2.5); format: functional
NCI-H727 [27] = experiment: Cell cycle arrest in human NCI-H727 cells harboring p53 mutant assessed as mitotic index at 10 uM measured after 48 hrs by Hoechst staining based fluorescence assay (reference value: 1.1); format: functional
HaCaT [28] = experiment: Cell cycle arrest in human HaCaT cells harboring […] p53 assessed as accumulation at S phase at 10 uM measured after 48 hrs by Hoechst/BrdU staining based fluorescence assay (reference value: 52.3%); format: functional
Huh-7 [29] = experiment: Cell cycle arrest in human HuH7 cells assessed as mitotic index at 25 uM measured after 48 hrs by Hoechst staining based fluorescence assay (reference value: 2.2); format: functional
Caco-2 [30] = experiment: Cell cycle arrest in human Caco2 cells assessed as accumulation at S phase at 25 uM measured after 48 hrs by Hoechst/BrdU staining based fluorescence assay (reference value: […]); format: functional
PC-3 [31] = experiment: Cell cycle arrest in human PC3 cells harboring p53 mutant assessed as mitotic index at 25 uM measured after 48 hrs by Hoechst staining based fluorescence assay (reference value: 2.5); format: functional
PC-3 [32] = experiment: Cell cycle arrest in human PC3 cells harboring p53 mutant assessed as accumulation at S phase at 25 uM measured after 48 hrs by Hoechst/BrdU staining based fluorescence assay (reference value: 40.8%); format: functional
HaCaT [33] = experiment: Cell cycle arrest in human HaCaT cells harboring […] p53 assessed as accumulation at S phase at 25 uM measured after 48 hrs by Hoechst/BrdU staining based fluorescence assay (reference value: 52.3%); format: functional
Caco-2 [34] = experiment: Cell cycle arrest in human Caco2 cells assessed as accumulation at M phase by Hoechst staining based fluorescence assay; format: functional
HCT-116 [35] = experiment: Cell cycle arrest in human HCT116 cells assessed as accumulation at G1/S phase by Hoechst staining based fluorescence assay; format: functional
NCI-H727 [36] = experiment: Cell cycle arrest in human NCI-H727 cells assessed as accumulation at G1/S phase by Hoechst staining based fluorescence assay; format: functional
HCT-116 [37] = experiment: Induction of apoptosis in human HCT116 cells harboring wild-type p53 assessed as upregulation of cyclinB1 measured after 48 hrs by Hoechst staining based assay; format: functional, cell-based
PC-3 [38] = experiment: Induction of apoptosis in human PC3 cells harboring p53 mutant assessed as upregulation of cyclinB1 after 48 hrs by Hoechst staining based assay; format: functional, cell-based
MDA-MB-231 [39] = experiment: Induction of apoptosis in human MDA-MB-231 cells harboring p53 mutant assessed as upregulation of cyclinB1 after 18 hrs by Hoechst staining based assay; format: functional, cell-based

## COc1cc(OC)c(C(=O)/C=C/c2ccc(Br)cc2)c(OC)c1
Huh-7 [1]
  viability at 50 µM: 3%
Caco-2 [2]
  viability at 50 µM: 0%
MDA-MB-231 [3]
  viability at 50 µM: 6%
HCT-116 [4]
  viability at 50 µM: 0%
PC-3 [5]
  viability at 50 µM: 10%
Huh-7 [6]
  IC50: 13.9 µM
Caco-2 [7]
  IC50: 6.8 µM
HCT-116 [8]
  IC50: 6.2 µM
PC-3 [9]
  IC50: 7.1 µM
NCI-H727 [10]
  IC50: 11.3 µM
HaCaT [11]
  IC50: 9 µM
Fibroblast
  IC50: > 20 µM
[12]
  Ratio IC50: >3.6
[13]
  Ratio IC50: >7.4
[14]
  Ratio IC50: >4.5
[15]
  Ratio IC50: >7
[16]
  Ratio IC50: >4.4
[17]
  Ratio IC50: >5.6
[18]
  Ratio IC50: >6
MDA-MB-231 [19]
  Activity: Active
MCF7
  Activity: Active
PC-3 [20]
  Activity: Active
MDA-MB-231 [21]
  Activity: Active
Huh-7 [22]
  Activity_index: 10.4
Huh-7 [23]
  Activity: 46%
Caco-2 [24]
  Activity_index: 30.7
MDA-MB-231 [25]
  Activity_index: 15
PC-3 [26]
  Activity_index: 2.5
NCI-H727 [27]
  Activity_index: 1
HaCaT [28]
  Activity: 24%
Huh-7 [29]
  Activity_index: 0.1
Caco-2 [30]
  Activity: 1.9%
PC-3 [31]
  Activity_index: 0
PC-3 [32]
  Activity: 0.4%
HaCaT [33]
  Activity: 0.3%
Caco-2 [34]
  Activity: Active
HCT-116 [35]
  Activity: Active
NCI-H727 [36]
  Activity: Active
HCT-116 [37]
  Activity: Active
PC-3 [38]
  Activity: Active
MDA-MB-231 [39]
  Activity: Active

## COc1cc(OC)c(C(=O)/C=C/c2ccccc2SC)c(OC)c1
Huh-7 [1]
  viability at 50 µM: 4%
Caco-2 [2]
  viability at 50 µM: 17%
MDA-MB-231 [3]
  viability at 50 µM: 36%
HCT-116 [4]
  viability at 50 µM: 0%
PC-3 [5]
  viability at 50 µM: 30%
Huh-7 [6]
  IC50: 14.1 µM
Caco-2 [7]
  IC50: 8.8 µM
HCT-116 [8]
  IC50: 6.8 µM
PC-3 [9]
  IC50: 7.6 µM
NCI-H727 [10]
  IC50: 8.7 µM
HaCaT [11]
  IC50: 7.7 µM
Fibroblast
  IC50: > 20 µM
[12]
  Ratio IC50: 2.3
[13]
  Ratio IC50: 3.6
[14]
  Ratio IC50: 3.2
[15]
  Ratio IC50: 4.2
[16]
  Ratio IC50: 3.7
[17]
  Ratio IC50: 4.1
[18]
  Ratio IC50: 3.8
MDA-MB-231 [19]
  Activity: Active
MCF7
  Activity: Active
PC-3 [20]
  Activity: Active
MDA-MB-231 [21]
  Activity: Active
Huh-7 [22]
  Activity_index: 6.5
Huh-7 [23]
  Activity: 37%
Caco-2 [24]
  Activity_index: 29.3
MDA-MB-231 [25]
  Activity_index: 18
PC-3 [26]
  Activity_index: 12.1
NCI-H727 [27]
  Activity_index: 1
HaCaT [28]
  Activity: 24%
Huh-7 [29]
  Activity_index: 0.4
Caco-2 [30]
  Activity: 2.2%
PC-3 [31]
  Activity_index: 0.3
PC-3 [32]
  Activity: 0%
HaCaT [33]
  Activity: 0%
Caco-2 [34]
  Activity: Active
HCT-116 [35]
  Activity: Active
NCI-H727 [36]
  Activity: Active
HCT-116 [37]
  Activity: Active
PC-3 [38]
  Activity: Active
MDA-MB-231 [39]
  Activity: Active
